In ChEMBL document CHEMBL1201862, “PubChem BioAssay data set” (2004):
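Interpolation was linear, between the two tested concentrations surrounding the appropriate level; five concentrations were tested over 48 hours in 96-well plates. Here, GI50 denotes the concentration required for 50% inhibition of growth.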 Active and inactive are the calls of the source. Rule as the data show it: active = GI50 up to about 1.1 µM and inactive = higher.

Assays:
Test in all cases: NCI-60 cell line screen, 48 h
SK-OV-3 = tested on: SK-OV-3
HOP-92 = tested on: HOP-92
M19-MEL = tested on: M19-MEL
786-0 = tested on: 786-0
SK-MEL-2 = tested on: SK-MEL-2
SNB-75 = tested on: SNB-75
SNB-78 = tested on: SNB-78
SR = tested on: SR
SF-539 = tested on: SF-539
HCC 2998 = tested on: HCC 2998
HCT-116 = tested on: HCT-116
HOP-62 = tested on: HOP-62
SF-268 = tested on: SF-268
UACC-62 = tested on: UACC-62
IGROV-1 = tested on: IGROV-1
SN12C = tested on: SN12C
SK-MEL-28 = tested on: SK-MEL-28
UO-31 = tested on: UO-31
ACHN = tested on: ACHN
DLD-1 = tested on: DLD-1
HL-60 = tested on: HL-60
M14 = tested on: M14
Malme-3M = tested on: Malme-3M
CAKI-1 = tested on: CAKI-1
NCI-H522 = tested on: NCI-H522
DMS-114 = tested on: DMS-114
LXFL 529 = tested on: LXFL 529
DMS-273 = tested on: DMS-273
CCRF-CEM = tested on: CCRF-CEM
NCI-H460 = tested on: NCI-H460
RPMI-8226 = tested on: RPMI-8226
NCI-H23 = tested on: NCI-H23
MOLT-4 = tested on: MOLT-4
K562 = tested on: K562
COLO 205 = tested on: COLO 205
OVCAR-4 = tested on: OVCAR-4
NCI-H226 = tested on: NCI-H226
A549 = tested on: A549
SNB-19 = tested on: SNB-19
LOX IMVI = tested on: LOX IMVI
HT-29 = tested on: HT-29
RXF 393 = tested on: RXF 393
DU-145 = tested on: DU-145
OVCAR-5 = tested on: OVCAR-5
EKVX = tested on: EKVX
UACC-257 = tested on: UACC-257
HCT-15 = tested on: HCT-15
MDA-MB-435 = tested on: MDA-MB-435
TK-10 = tested on: TK-10
A498 = tested on: A498
SF-295 = tested on: SF-295
Hs-578T = tested on: Hs-578T
U-251 = tested on: U-251
MCF7 = tested on: MCF7
SW-620 = tested on: SW-620
BT-549 = tested on: BT-549
KM12 = tested on: KM12
OVCAR-3 = tested on: OVCAR-3
MDA-N = tested on: MDA-N
T47D = tested on: T47D
PC-3 = tested on: PC-3
MDA-MB-231 = tested on: MDA-MB-231
NCI/ADR-RES = tested on: NCI/ADR-RES
SK-MEL-5 = tested on: SK-MEL-5
OVCAR-8 = tested on: OVCAR-8

`CCCNC1CC(n2cc(C)c(=O)[nH]c2=O)OC1CO` (stereo unspecified) was tested, and the GI50 (SK-OV-3) was > 100 µM (inactive), the GI50 (HOP-92) was > 100 µM (inactive) and the GI50 (M19-MEL) was > 100 µM (inactive). The GI50 (786-0) was > 100 µM (inactive), the GI50 (SK-MEL-2) was > 100 µM (inactive) and the GI50 (SNB-75) was > 100 µM (inactive). For the same molecule, the GI50 (SNB-78) was > 100 µM (inactive), the GI50 (SR) was > 100 µM (inactive) and the GI50 (SF-539) was > 100 µM (inactive). For the same molecule, the GI50 (HCC 2998) was > 100 µM (inactive), the GI50 (HCT-116) was > 100 µM (inactive) and the GI50 (HOP-62) was > 100 µM (inactive). For the same molecule, the GI50 (SF-268) was > 100 µM (inactive), the GI50 (UACC-62) was > 100 µM (inactive) and the GI50 (IGROV-1) was > 100 µM (inactive). For the same molecule, the GI50 (SN12C) was > 100 µM (inactive), the GI50 (SK-MEL-28) was > 100 µM (inactive) and the GI50 (UO-31) was > 100 µM (inactive). For the same molecule, the GI50 (ACHN) was > 100 µM (inactive), the GI50 (DLD-1) was > 100 µM (inactive) and the GI50 (HL-60) was > 100 µM (inactive). For the same molecule, the GI50 (M14) was > 100 µM (inactive), the GI50 (Malme-3M) was > 100 µM (inactive) and the GI50 (CAKI-1) was > 100 µM (inactive). For the same molecule, the GI50 (NCI-H522) was > 100 µM (inactive), the GI50 (DMS-114) was > 100 µM (inactive) and the GI50 (LXFL 529) was > 100 µM (inactive). For the same molecule, the GI50 (DMS-273) was > 100 µM (inactive), the GI50 (CCRF-CEM) was > 100 µM (inactive) and the GI50 (NCI-H460) was > 100 µM (inactive). The GI50 (RPMI-8226) was > 100 µM (inactive), the GI50 (NCI-H23) was > 100 µM (inactive) and the GI50 (MOLT-4) was > 100 µM (inactive). The GI50 (K562) was > 100 µM (inactive), the GI50 (COLO 205) was > 100 µM (inactive) and the GI50 (OVCAR-4) was > 100 µM (inactive). For the same molecule, the GI50 (NCI-H226) was > 100 µM (inactive).
For `Cc1c(C(=O)c2ccc(N)c3ccccc23)c2ccccc2n1CCN1CCOCC1`, the GI50 (SK-OV-3) was 1.97 µM (inactive), the GI50 (HOP-92) was 21.9 µM (inactive) and the GI50 (A549) was 13.1 µM (inactive). For the same molecule, the GI50 (SNB-19) was 21.5 µM (inactive), the GI50 (LOX IMVI) was 22.5 µM (inactive) and the GI50 (HT-29) was 22.4 µM (inactive). For the same molecule, the GI50 (RXF 393) was 24.2 µM (inactive), the GI50 (786-0) was 28 µM (inactive) and the GI50 (SK-MEL-2) was 18.6 µM (inactive). For the same molecule, the GI50 (SNB-75) was 2.62 µM (inactive), the GI50 (DU-145) was 31.1 µM (inactive) and the GI50 (OVCAR-5) was 25.9 µM (inactive). The GI50 (SR) was > 32.8 µM (inactive), the GI50 (EKVX) was 29.1 µM (inactive) and the GI50 (SF-539) was 19.7 µM (inactive). The GI50 (HCC 2998) was 21.1 µM (inactive), the GI50 (UACC-257) was 17.3 µM (inactive) and the GI50 (HCT-116) was 19.5 µM (inactive). The GI50 (HOP-62) was 5.74 µM (inactive), the GI50 (SF-268) was 28.6 µM (inactive) and the GI50 (HCT-15) was 21 µM. The GI50 (UACC-62) was 16.4 µM (inactive), the GI50 (IGROV-1) was 27.1 µM (inactive) and the GI50 (MDA-MB-435) was 2.02 µM (inactive). For the same molecule, the GI50 (SN12C) was 33.8 µM (inactive), the GI50 (SK-MEL-28) was 43.5 µM (inactive) and the GI50 (TK-10) was 31 µM (inactive). The GI50 (UO-31) was 25.5 µM (inactive), the GI50 (ACHN) was 31.4 µM (inactive) and the GI50 (A498) was 29.3 µM (inactive). For the same molecule, the GI50 (SF-295) was 3.15 µM (inactive), the GI50 (HL-60) was 22.3 µM (inactive) and the GI50 (M14) was 24.5 µM (inactive). The GI50 (Hs-578T) was 0.759 µM (active), the GI50 (Malme-3M) was 18.3 µM (inactive) and the GI50 (CAKI-1) was 7.85 µM (inactive). The GI50 (U-251) was 2.77 µM (inactive), the GI50 (MCF7) was 21.2 µM (inactive) and the GI50 (SW-620) was 26.1 µM (inactive). The GI50 (BT-549) was 27.4 µM (inactive), the GI50 (KM12) was 3.38 µM (inactive) and the GI50 (NCI-H522) was 6.82 µM (inactive). The GI50 (OVCAR-3) was 15.7 µM (inactive), the GI50 (CCRF-CEM) was 2.9 µM (inactive) and the GI50 (MDA-N) was 16.3 µM (inactive). The GI50 (NCI-H460) was 3.4 µM (inactive), the GI50 (T47D) was 31.5 µM (inactive) and the GI50 (RPMI-8226) was 23.6 µM (inactive). The GI50 (PC-3) was 27.5 µM (inactive), the GI50 (NCI-H23) was 29.7 µM (inactive) and the GI50 (MDA-MB-231) was 12.6 µM (inactive). The GI50 (MOLT-4) was 12 µM (inactive), the GI50 (NCI/ADR-RES) was 23.4 µM (inactive) and the GI50 (SK-MEL-5) was 15.5 µM (inactive). The GI50 (K562) was 25.5 µM (inactive), the GI50 (COLO 205) was 27.5 µM (inactive) and the GI50 (OVCAR-4) was 3.1 µM (inactive). The GI50 (NCI-H226) was 32.1 µM (inactive) and the GI50 (OVCAR-8) was 31.2 µM (inactive).
